What follows are compounds tested against LRRK2 (Homo sapiens (Human), UniProt Q5S007) (assay: In Vitro LRRK2 Assay (LabChip 3000, fluorescently-labeled peptide substrate)). Conditions: ATP 130 μM, substrate 1 μM, 2 hours, ambient temperature; LRRK2 variant not given; read-out: Ki (μM), affinity values for LRRK2.
Type: biochemical

Chain of LRRK2 (Q5S007 whole entry G2019S): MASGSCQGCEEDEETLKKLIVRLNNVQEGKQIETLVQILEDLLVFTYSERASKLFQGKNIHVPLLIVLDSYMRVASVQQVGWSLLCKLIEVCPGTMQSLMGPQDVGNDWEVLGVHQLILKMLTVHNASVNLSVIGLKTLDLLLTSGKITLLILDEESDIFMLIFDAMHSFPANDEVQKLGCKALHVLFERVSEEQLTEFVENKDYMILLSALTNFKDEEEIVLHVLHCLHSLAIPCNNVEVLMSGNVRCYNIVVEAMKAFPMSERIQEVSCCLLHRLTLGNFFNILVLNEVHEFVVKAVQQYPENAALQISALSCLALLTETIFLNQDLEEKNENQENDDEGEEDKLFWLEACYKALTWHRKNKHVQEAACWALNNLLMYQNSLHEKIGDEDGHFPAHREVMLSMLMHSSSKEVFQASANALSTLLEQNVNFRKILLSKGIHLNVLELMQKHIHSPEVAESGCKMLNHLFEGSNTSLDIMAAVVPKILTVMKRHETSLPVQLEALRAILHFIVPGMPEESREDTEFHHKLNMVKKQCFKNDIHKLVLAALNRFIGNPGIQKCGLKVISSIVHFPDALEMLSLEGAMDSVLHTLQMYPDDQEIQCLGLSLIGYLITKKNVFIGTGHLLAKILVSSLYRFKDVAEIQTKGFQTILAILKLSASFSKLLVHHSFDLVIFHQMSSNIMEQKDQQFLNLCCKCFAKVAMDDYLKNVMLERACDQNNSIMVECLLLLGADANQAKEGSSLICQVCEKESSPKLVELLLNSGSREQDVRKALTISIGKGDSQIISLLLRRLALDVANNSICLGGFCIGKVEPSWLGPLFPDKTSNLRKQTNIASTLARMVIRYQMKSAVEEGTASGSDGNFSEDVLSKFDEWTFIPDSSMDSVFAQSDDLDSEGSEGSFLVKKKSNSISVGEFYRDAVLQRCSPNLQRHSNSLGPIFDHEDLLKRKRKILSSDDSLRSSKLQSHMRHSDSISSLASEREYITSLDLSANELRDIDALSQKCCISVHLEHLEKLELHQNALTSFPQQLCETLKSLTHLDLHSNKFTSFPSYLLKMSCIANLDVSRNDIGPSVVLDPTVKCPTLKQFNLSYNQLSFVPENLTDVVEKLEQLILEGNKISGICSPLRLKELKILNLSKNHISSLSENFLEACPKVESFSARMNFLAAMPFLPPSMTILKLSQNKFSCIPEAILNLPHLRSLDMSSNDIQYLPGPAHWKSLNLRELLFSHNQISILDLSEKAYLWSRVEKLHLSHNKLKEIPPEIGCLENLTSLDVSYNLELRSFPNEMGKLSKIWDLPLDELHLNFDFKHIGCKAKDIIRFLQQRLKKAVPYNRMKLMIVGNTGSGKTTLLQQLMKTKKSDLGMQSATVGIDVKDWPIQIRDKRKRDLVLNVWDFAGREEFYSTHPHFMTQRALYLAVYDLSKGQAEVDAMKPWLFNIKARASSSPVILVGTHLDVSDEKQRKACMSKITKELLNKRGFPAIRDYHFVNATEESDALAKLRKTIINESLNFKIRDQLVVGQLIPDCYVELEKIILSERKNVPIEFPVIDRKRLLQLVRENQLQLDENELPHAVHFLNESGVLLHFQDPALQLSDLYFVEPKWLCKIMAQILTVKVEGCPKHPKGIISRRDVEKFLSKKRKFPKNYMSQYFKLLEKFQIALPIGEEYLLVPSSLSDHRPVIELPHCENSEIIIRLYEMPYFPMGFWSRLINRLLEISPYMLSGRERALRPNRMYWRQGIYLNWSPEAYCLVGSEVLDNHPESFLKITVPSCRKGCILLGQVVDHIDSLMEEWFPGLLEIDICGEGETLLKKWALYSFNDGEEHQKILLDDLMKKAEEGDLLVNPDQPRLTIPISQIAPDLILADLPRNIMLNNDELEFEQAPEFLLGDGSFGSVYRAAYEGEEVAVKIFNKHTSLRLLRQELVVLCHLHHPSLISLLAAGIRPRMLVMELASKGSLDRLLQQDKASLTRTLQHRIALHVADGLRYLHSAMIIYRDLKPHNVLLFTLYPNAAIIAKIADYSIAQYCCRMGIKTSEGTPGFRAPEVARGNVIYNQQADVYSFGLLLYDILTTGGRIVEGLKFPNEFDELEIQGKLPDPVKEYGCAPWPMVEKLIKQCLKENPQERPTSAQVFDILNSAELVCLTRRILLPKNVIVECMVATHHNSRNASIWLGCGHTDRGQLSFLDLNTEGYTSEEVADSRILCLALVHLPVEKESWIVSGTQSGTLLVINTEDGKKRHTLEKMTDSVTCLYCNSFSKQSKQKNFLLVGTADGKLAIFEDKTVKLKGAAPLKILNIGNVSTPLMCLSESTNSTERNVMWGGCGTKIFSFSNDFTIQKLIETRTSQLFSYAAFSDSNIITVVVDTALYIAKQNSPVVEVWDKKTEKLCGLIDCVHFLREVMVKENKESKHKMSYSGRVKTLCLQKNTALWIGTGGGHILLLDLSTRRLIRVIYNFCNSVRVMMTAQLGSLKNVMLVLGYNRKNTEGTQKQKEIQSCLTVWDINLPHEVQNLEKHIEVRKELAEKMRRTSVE

Compound	Ki [µM]
CN(C)C(=O)c1cccc(-c2cc(-c3n[nH]c4ccnc(OC5CCOCC5)c34)ccn2)c1 [Example 203, N,N-dimethyl-3-(4-(4-(tetrahydro-2H-pyran-4-yloxy)-1H-pyrazolo[4,3-c]pyridin-3-yl)pyridin-2-yl)benzamide]	0.018
c1cc(-c2n[nH]c3ccnc(OC4CCOCC4)c23)cc(-c2cn[nH]c2)n1 [Example 204, 3-(2-(1H-pyrazol-4-yl)pyridin-4-yl)-4-(tetrahydro-2H-pyran-4-yloxy)-1H-pyrazolo[4,3-c]pyridine]	0.012
CC(=O)Nc1ccccc1-c1cc(-c2n[nH]c3ccnc(OC4CCOCC4)c23)ccn1 [Example 206, N-(2-(4-(4-(tetrahydro-2H-pyran-4-yloxy)-1H-pyrazolo[4,3-c]pyridin-3-yl)pyridin-2-yl)phenyl)acetamide]	0.066
CC(=O)Nc1ccc(-c2cc(-c3n[nH]c4ccnc(OC5CCOCC5)c34)ccn2)cn1 [Example 207, N-(4-(4-(tetrahydro-2H-pyran-4-yloxy)-1H-pyrazolo[4,3-c]pyridin-3-yl)-2,3′-bipyridin-6′-yl)acetamide]	0.021
CC(=O)Nc1cccc(-c2cc(-c3n[nH]c4ccnc(OC5CCOCC5)c34)ccn2)c1 [Example 209, N-(3-(4-(4-(tetrahydro-2H-pyran-4-yloxy)-1H-pyrazolo[4,3-c]pyridin-3-yl)pyridin-2-yl)phenyl)acetamide]	0.01
CC(=O)Nc1ccc(-c2cc(-c3n[nH]c4ccnc(OC5CCOCC5)c34)ccn2)cc1 [Example 210, N-(4-(4-(4-(tetrahydro-2H-pyran-4-yloxy)-1H-pyrazolo[4,3-c]pyridin-3-yl)pyridin-2-yl)phenyl)acetamide]	0.011
CNC(=O)c1cccc(-c2cc(-c3n[nH]c4ccnc(OC5CCOCC5)c34)ccn2)c1 [Example 211, N-methyl-3-(4-(4-(tetrahydro-2H-pyran-4-yloxy)-1H-pyrazolo[4,3-c]pyridin-3-yl)pyridin-2-yl)benzamide]	0.015
CN(C)C(=O)c1ccc(-c2cc(-c3n[nH]c4ccnc(OC5CCOCC5)c34)ccn2)cc1 [Example 212, N,N-dimethyl-4-(4-(4-(tetrahydro-2H-pyran-4-yloxy)-1H-pyrazolo[4,3-c]pyridin-3-yl)pyridin-2-yl)benzamide]	0.009
CCn1cc(-c2cc(-c3n[nH]c4ccnc(OC5CCOCC5)c34)ccn2)cn1 [Example 213, 3-(2-(1-ethyl-1H-pyrazol-4-yl)pyridin-4-yl)-4-(tetrahydro-2H-pyran-4-yloxy)-1H-pyrazolo[4,3-c]pyridine]	0.012
CC(C)Oc1nccc2[nH]nc(-c3cc(C(=O)N4CCCC4)n(C(C)C)c3)c12 [Example 216, [4-(4-Isopropoxy-1H-pyrazolo[4,3-c]pyridin-3-yl)-1-isopropyl-1H-pyrrol-2-yl]-pyrrolidin-1-yl-methanone]	0.006
CC(C)n1cc(-c2n[nH]c3ccnc(OC4CCOCC4)c23)cc1C(=O)N1CCC1 [Example 218, Azetidin-1-yl-{1-isopropyl-4-[4-(tetrahydro-pyran-4-yloxy)-1H-pyrazolo[4,3-c]pyridin-3-yl]-1H-pyrrol-2-yl}-methanone]	0.008
CC(C)Oc1nccc2[nH]nc(-c3ccnc(C(=O)N4C[C@@H]5C[C@H]4CO5)c3)c12 [Example 220, [4-(4-Isopropoxy-1H-pyrazolo[4,3-c]pyridin-3-yl)-pyridin-2-yl]-(1S,4S)-2-oxa-5-aza-bicyclo[2.2.1]hept-5-yl-methanone]	0.384
CC(C)n1cc(-c2n[nH]c3ccnc(OC4CCOC4)c23)cn1 (stereo not shown) [Example 224, 3-(1-Isopropyl-1H-pyrazol-4-yl)-4-(tetrahydro-furan-3-yloxy)-1H-pyrazolo[4,3-c]pyridine]	0.007
COc1nccc2[nH]nc(-c3cnn(C4CCOC4)c3)c12 (stereo not shown) [Example 234, 4-methoxy-3-(1-(tetrahydrofuran-3-yl)-1H-pyrazol-4-yl)-1H-pyrazolo[4,3-c]pyridine]	0.023
CNC(=O)c1cccc(-c2[nH]nc3cc(C)nc(OC)c23)c1 [Example 235, 3-(4-methoxy-6-methyl-1H-pyrazolo[4,3-c]pyridin-3-yl)-N-methylbenzamide]	0.199
COc1nccc2[nH]nc(-c3ccnc(N4C[C@@H](C)O[C@@H](C)C4)c3)c12 [Example 238, (2S,6R)-4-(4-(4-methoxy-1H-pyrazolo[4,3-c]pyridin-3-yl)pyridin-2-yl)-2,6-dimethylmorpholine]	0.025
